Some test systems named below: DLD-1 colon; DMS 114 small cell lung; M19-MEL melanoma; XF 498 CNS; HOP-18 NSCLC; RXF-631 renal; BT-549 breast; MCF7 breast; MDA-MB-435; NCI/ADR-RES ovarian; T-47D breast.
Experiment in all cases: DTP human tumour cell line panel, 48 h

Values joined by “and” are separate entries in the source; they are usually repeats but may differ in a detail not shown here. Equal values may be shown once.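 Where inhibition never reached the appropriate level, the endpoint shown equals the highest concentration tested. Otherwise, values were interpolated linearly from a five-concentration, 48-hour dose response in 96-well plates. The concentration for 50% growth inhibition is given as GI50. TGI: total growth inhibition.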

What is called TGI is the concentration at which net growth stops. A low value points to more potent growth arrest. With `O=C1CCC2(CC1)SCCCS2`, the TGI in the test with DLD-1 colon, with DMS 114 small cell lung, in the test on M19-MEL melanoma and in the test on XF 498 CNS was greater than 100 µM in each case.

Consider `CCCCCCCC/C=C\CCCCCCCC(=O)NCCN(CCN)C(=O)CCCCCCC/C=C\CCCCCCCC`, for which the TGI in the test with DLD-1 colon, in the test on DMS 114 small cell lung, in the test on HOP-18 NSCLC and in the test on M19-MEL melanoma was greater than 100 µM each time.

Take `Cc1cc(Cl)ccc1N=C1NC(=O)C(CC(=O)Nc2ccc(Cl)cc2Cl)S1` (stereo not drawn): the TGI in the test with DLD-1 colon, with DMS 114 small cell lung, with M19-MEL melanoma, in the test with RXF-631 renal and in the test with XF 498 CNS was greater than 100 µM in each case.

Broadly, the GI50 is the concentration giving 50% growth inhibition. For the compound `Cc1[nH]c(=O)[nH]c(=O)c1CO`, the GI50 in the test on BT-549 breast, with MCF7 breast, in the test on MDA-MB-435, with NCI/ADR-RES ovarian and with T-47D breast was greater than 100 µM in each case. The TGI in the test on BT-549 breast, in the test with MCF7 breast, in the test with MDA-MB-435, with NCI/ADR-RES ovarian and in the test on T-47D breast was greater than 100 µM in each case.

As for `NC1=N/C(=C2/CCNC(=O)c3[nH]c(Br)cc32)C(=O)N1`, the TGI was 53.3 µM in the test on BT-549 breast; greater than 100 µM in the test on DLD-1 colon; greater than 100 µM in the test on DMS 114 small cell lung; greater than 100 µM in the test with HOP-18 NSCLC; greater than 100 µM with M19-MEL melanoma; greater than 100 µM in the test on MCF7 breast. Further, the TGI in the test on MDA-MB-435 is greater than 55.5 µM; with NCI/ADR-RES ovarian, greater than 100 µM; with T-47D breast, 51.8 µM; in the test on XF 498 CNS, greater than 100 µM. In the test with NCI/ADR-RES ovarian, the GI50 was 11.9 µM and > 43.3 µM.

For the compound `COc1ccc2c(c1)CCC1C2CC[C@]2(C)/C(=N/OC(=O)Cc3ccccc3)CCC12` (stereo partly drawn), the GI50 was 24.7 µM in the test on BT-549 breast; 24.7 µM with MCF7 breast; 16.7 µM with MDA-MB-435; 20.9 µM with NCI/ADR-RES ovarian; 19.5 µM in the test on T-47D breast. For the same compound, the TGI in the test on BT-549 breast turned out to be 49.4 µM; in the test on MCF7 breast, 54.5 µM; in the test on MDA-MB-435 it was 30.5 µM; in the test with NCI/ADR-RES ovarian, 39.8 µM; in the test with T-47D breast, 52.2 µM.

As to `COc1cc(/C=C2\COc3ccc(O)c(O)c3C2=O)cc(OC)c1`, the GI50 was 1.56 µM in the test on BT-549 breast; 1.71 µM in the test with MCF7 breast; 1.52 µM in the test with MDA-MB-435; 2.24 µM in the test with NCI/ADR-RES ovarian; 1.45 µM in the test on T-47D breast. Further, the TGI with BT-549 breast amounted to 4.97 µM; in the test on MCF7 breast, 14.6 µM; in the test with MDA-MB-435, 3.98 µM; with NCI/ADR-RES ovarian, 46.5 µM; in the test with T-47D breast, 8 µM.

For the compound `O=C1OC(O)C(Oc2ccc(Cl)cc2)=C1Cl` (stereo not drawn), the TGI in the test on DLD-1 colon, in the test on DMS 114 small cell lung, with M19-MEL melanoma and with RXF-631 renal was greater than 100 µM each time.

For `NCc1nnn(Cc2ccccc2)c1N`, the TGI with BT-549 breast, in the test on MCF7 breast, with MDA-MB-435, in the test with NCI/ADR-RES ovarian and in the test on T-47D breast was greater than 100 µM each time.

As for `COc1ccc(/C=C/c2n[nH]c3ccc(N4CCOC4=O)cc23)cc1`, the GI50 with BT-549 breast is 1.14 µM; with MCF7 breast it was 1.93 µM; with MDA-MB-435, 3.2 µM; in the test on NCI/ADR-RES ovarian, 2.99 µM; in the test on T-47D breast, 3.01 µM. Further, the TGI is 5.32 µM in the test with BT-549 breast; 40.3 µM in the test with MCF7 breast; 38.6 µM in the test on MDA-MB-435; 40.2 µM in the test on NCI/ADR-RES ovarian; 8.56 µM with T-47D breast.

As for `COc1ccc(/C(C)=N/OC(=O)c2c(-c3ccccc3Cl)noc2C)cc1CN1CCOCC1`, the total growth inhibition concentration (TGI) in the test on BT-549 breast was 54.9 µM; in the test on MCF7 breast, 46.3 µM; in the test with MDA-MB-435 it was 57.3 µM; with NCI/ADR-RES ovarian, greater than 100 µM; in the test on T-47D breast, 71 µM.

Consider `COC(=O)CCC/C=C\C[C@H]1C=CC(=O)/C1=C/C[C@@H](O)C/C=C\CC(F)(F)F`, for which the GI50 in the test with BT-549 breast is 2.12 µM; in the test with MCF7 breast it was 0.393 µM; in the test on MDA-MB-435 it was 2.05 µM; in the test on NCI/ADR-RES ovarian it was 2.32 µM; in the test on T-47D breast, 3.06 µM. Moreover, the TGI stood at 5.37 µM in the test on BT-549 breast; 10.3 µM in the test with MCF7 breast; 10.6 µM in the test with MDA-MB-435; 8.33 µM in the test on NCI/ADR-RES ovarian; 16.3 µM in the test with T-47D breast.

In the case of `O=c1c2ccccc2c2nc3ccccc3nc2n1C1CCCCC1`, the total growth inhibition concentration (TGI) in the test with DMS 114 small cell lung and in the test on M19-MEL melanoma was greater than 100 µM each time.

For `C=C(C)[C@@H]1CC[C@]2(C)[C@H](CC[C@@H]3[C@H]4[C@H]5OC[C@@]4(CCC5(C)C)CC[C@]32C)[C@@]1(C)CCCN`, the GI50 is 1.67 µM in the test on BT-549 breast; 1.57 µM in the test with MCF7 breast; 1.76 µM with MDA-MB-435; 1.95 µM in the test on NCI/ADR-RES ovarian; 1.88 µM with T-47D breast. The TGI in the test on BT-549 breast came to 3.12 µM; in the test with MCF7 breast, 3.04 µM; in the test with MDA-MB-435 it was 3.24 µM; with NCI/ADR-RES ovarian it was 3.89 µM; in the test with T-47D breast, 4.21 µM.

Turning to `O=C1C(=O)C(Br)(Br)C(Br)=C1Br`, the TGI was 41.4 µM in the test with DLD-1 colon; 40.8 µM with DMS 114 small cell lung; 29.8 µM with HOP-18 NSCLC; 34.4 µM with M19-MEL melanoma; greater than 100 µM in the test on RXF-631 renal.

Regarding `O=[N+]([O-])c1nccn1COCCF`, the TGI in the test with DLD-1 colon, in the test on DMS 114 small cell lung, in the test on M19-MEL melanoma and with XF 498 CNS was greater than 100 µM throughout.

Turning to `Cc1ccccc1C(C#N)C(=O)C(=O)Nc1cccc(Cl)c1` (stereo not drawn), the TGI was greater than 100 µM with DLD-1 colon; greater than 100 µM with DMS 114 small cell lung; 95.5 µM in the test with M19-MEL melanoma; greater than 100 µM with RXF-631 renal; greater than 100 µM in the test with XF 498 CNS.

With `CN(C)CCNC(=O)c1cccc2[nH]c(-c3ccccc3)nc12`, the TGI worked out at 39.2 µM in the test with DLD-1 colon; 32.3 µM with DMS 114 small cell lung; 46.1 µM in the test on HOP-18 NSCLC; 33.5 µM in the test on M19-MEL melanoma; 57.9 µM in the test on RXF-631 renal.

Take `CC(C)=CC(=O)Cc1nc2cc(C)c(C)cc2[nH]c1=O`: the TGI in the test on DLD-1 colon, in the test with HOP-18 NSCLC, in the test with M19-MEL melanoma and in the test with RXF-631 renal was greater than 100 µM throughout.

For the origin of these results see PubChem BioAssay (NCI).
